In patent US20240199587A1, “HETEROCYCLIC COMPOUNDS” (Hoffmann-La Roche Inc., priority 2021, published 2024):

Target: T1, MAGL (Homo sapiens, UniProt Q99685)
T1 sequence (Q99685 1-303): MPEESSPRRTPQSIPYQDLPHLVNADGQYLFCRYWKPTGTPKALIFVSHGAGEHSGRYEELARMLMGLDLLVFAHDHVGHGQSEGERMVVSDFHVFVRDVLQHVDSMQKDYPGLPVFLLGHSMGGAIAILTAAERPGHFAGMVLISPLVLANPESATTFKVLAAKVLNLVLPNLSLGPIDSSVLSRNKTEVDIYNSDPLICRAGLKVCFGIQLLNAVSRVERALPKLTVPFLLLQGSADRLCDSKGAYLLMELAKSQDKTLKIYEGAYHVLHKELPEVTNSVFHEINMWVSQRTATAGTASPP
Test: 2-AG assay (MAGL inhibitory activity, hydrolysis of 2-arachidonoylglycerol to arachidonic acid followed by mass spectrometry)
Type: biochemical
Conditions: 8 μM 2-arachidonoylglycerol, 15 min pre-incubation, 30 min incubation at RT, RapidFire MS readout
Summary of the method: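 Arachidonic acid released from 8 μM 2-arachidonoylglycerol was quantified by online SPE triple-quadrupole MS (negative ESI, 303.1→259.1), normalised to d8-arachidonic acid internal standard. Reaction ran 30 min at RT after 15 min RT compound pre-incubation with […] MAGL in TRIS/EDTA/Tween-20 buffer, 2.5% DMSO.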

IC50 [nM]	Structure (SMILES)
1.25	CS(=O)(=O)c1ccc(CC2CC3(C2)CN(C(=O)N2CC4(CC(n5cnc(C(F)(F)F)n5)C4)C2)C3)cc1 [Example 455, [6-[(4-methylsulfonylphenyl)methyl]-2-azaspiro[3.3]heptan-2-yl]-[6-[3-(trifluoromethyl)-1,2,4-triazol-1-yl]-2-azaspiro[3.3]heptan-2-yl]methanone]
160	O=C(N1CC(OCc2ccc(C(F)(F)F)c(F)c2)C1)N1CC2(CC(n3cnc(C4CC4)n3)C2)C1 [Example 74, (6-(3-cyclopropyl-1H-1,2,4-triazol-1-yl)-2-azaspiro[3.3]heptan-2-yl)(3-((3-fluoro-4-(trifluoromethyl)benzyl)oxy)azetidin-1-yl)methanone]
80.3	O=C(N1CC(c2ccc(-c3ccc(Cl)cc3Cl)cn2)C1)N1CC2(CC(c3ccc(C(F)(F)F)nc3)C2)C1 [Example 537, [3-[5-(2,4-dichlorophenyl)-2-pyridyl]azetidin-1-yl]-[6-[6-(trifluoromethyl)-3-pyridyl]-2-azaspiro[3.3]heptan-2-yl]methanone]
2.2	O=C(N1CC(OCc2cc(F)cc(C(F)(F)F)c2)C1)N1CC2(CC(n3cnc(C4CC4)n3)C2)C1 [Example 76, (6-(3-cyclopropyl-1H-1,2,4-triazol-1-yl)-2-azaspiro[3.3]heptan-2-yl)(3-((3-fluoro-5-(trifluoromethyl)benzyl)oxy)azetidin-1-yl)methanone]
31.7	COc1cc(C(F)(F)F)ccc1CNC1CN(C(=O)N2CC3(CC(n4cnc(C(F)(F)F)n4)C3)C2)C1 [Example 451, [3-[[2-methoxy-4-(trifluoromethyl)phenyl]methylamino]azetidin-1-yl]-[6-[3-(trifluoromethyl)-1,2,4-triazol-1-yl]-2-azaspiro[3.3]heptan-2-yl]methanone]
3.3	O=C(N1CC2(CC(n3cnc(C4CC4)n3)C2)C1)N1CC2(C1)CN(S(=O)(=O)c1ccc(C(F)(F)F)cc1)C2 [Example 225, [6-(3-cyclopropyl-1,2,4-triazol-1-yl)-2-azaspiro[3.3]heptan-2-yl]-[2-[4-(trifluoromethyl)phenyl]sulfonyl-2,6-diazaspiro[3.3]heptan-6-yl]methanone]
65.8	O=C(N1CC(OCc2ccc(F)cc2F)C1)N1CC2(CC(n3cnc(C4CC4)c3)C2)C1 [Example 110, [6-(4-cyclopropylimidazol-1-yl)-2-azaspiro[3.3]heptan-2-yl]-[3-[(2,4-difluorophenyl)methoxy]azetidin-1-yl]methanone]
3.69	O=C(N1CC(c2ccc(N3CC(O)(C(F)(F)F)C3)nc2)C1)N1CC2(CC(n3cnc(C(F)(F)F)n3)C2)C1 [Example 452, [3-[6-[3-hydroxy-3-(trifluoromethyl)azetidin-1-yl]-3-pyridyl]azetidin-1-yl]-[6-[3-(trifluoromethyl)-1,2,4-triazol-1-yl]-2-azaspiro[3.3]heptan-2-yl]methanone]
2.2	COc1c(OC2CN(C(=O)N3CC4(CC(n5cnc(C6CC6)n5)C4)C3)C2)cccc1C(F)(F)F [Example 219, (6-(3-cyclopropyl-1H-1,2,4-triazol-1-yl)-2-azaspiro[3.3]heptan-2-yl)(3-(2-methoxy-3-(trifluoromethyl)phenoxy)azetidin-1-yl)methanone]

More lines, now with the values behind:

Structure (SMILES)	IC50 [nM]
O=C(N1CC(c2ccc(NC3CCS(=O)(=O)C3)nc2)C1)N1CC2(CC(n3cnc(C4CC4)n3)C2)C1 (stereo not drawn) [Example 505, [6-(3-cyclopropyl-1,2,4-triazol-1-yl)-2-azaspiro[3.3]heptan-2-yl]-[3-[6-[(1,1-dioxothiolan-3-yl)amino]-3-pyridyl]azetidin-1-yl]methanone]	32.3
CC(C)(C)c1nc(-c2ccc(C(=O)N3CC4(CC(n5ccc(C6CC6)n5)C4)C3)cc2)no1 [Example 171, [4-(5-tert-butyl-1,2,4-oxadiazol-3-yl)phenyl]-[6-(3-cyclopropylpyrazol-1-yl)-2-azaspiro[3.3]heptan-2-yl]methanone]	96.4
Cc1cn(C2CC3(C2)CN(C(=O)N2CC(OCc4ccc(S(F)(F)(F)(F)F)cc4)C2)C3)cn1 [Example 315, [6-(4-methylimidazol-1-yl)-2-azaspiro[3.3]heptan-2-yl]-[3-[[4-(pentafluoro-26-sulfanyl)phenyl]methoxy]azetidin-1-yl]methanone]	240
COc1cc(C(F)(F)F)ccc1O[C@H]1C[C@@H]2CN(C(=O)N3CC4(CC(n5cnc(C6CC6)n5)C4)C3)C[C@@H]2C1 [Example 116, [6-(3-cyclopropyl-1,2,4-triazol-1-yl)-2-azaspiro[3.3]heptan-2-yl]-[rac-(3aS,6aR)-5-[2-methoxy-4-(trifluoromethyl)phenoxy]-3,3a,4,5,6,6a-hexahydro-1H-cyclopenta[c]pyrrol-2-yl]methanone]	2.7
NC(=O)[C@@H](c1ccc(F)cc1)N1CCN(C(=O)N2CC3(CC(n4cnc(C5CC5)n4)C3)C2)CC1 [Example 326, (2R)-2-[4-[6-(3-cyclopropyl-1,2,4-triazol-1-yl)-2-azaspiro[3.3]heptane-2-carbonyl]piperazin-1-yl]-2-(4-fluorophenyl)acetamide]	583
CP(C)(=O)c1ccc(CC2CC3(C2)CN(C(=O)N2CC4(CC(n5cnc(C6CC6)n5)C4)C2)C3)nc1 [Example 378, [6-(3-cyclopropyl-1,2,4-triazol-1-yl)-2-azaspiro[3.3]heptan-2-yl]-[6-[(5-dimethylphosphoryl-2-pyridyl)methyl]-2-azaspiro[3.3]heptan-2-yl]methanone]	106
O=C(N1CC(Oc2nccc(C3CC3)c2Cl)C1)N1CC2(CC(n3cnc(C4CC4)n3)C2)C1 [Example 185, [3-[(3-chloro-4-cyclopropyl-2-pyridyl)oxy]azetidin-1-yl]-[6-(3-cyclopropyl-1,2,4-triazol-1-yl)-2-azaspiro[3.3]heptan-2-yl]methanone]	0.1
CS(=O)(=O)c1ccc(COC2CN(C(=O)N3CC4(CC(n5cnc(C6CC6)n5)C4)C3)C2)c(F)c1 [Example 266, [6-(3-cyclopropyl-1,2,4-triazol-1-yl)-2-azaspiro[3.3]heptan-2-yl]-[3-[(2-fluoro-4-methylsulfonyl-phenyl)methoxy]azetidin-1-yl]methanone]	29
O=C(N1CCC([C@@H](c2ccc(F)cc2)c2nc(C3CC3)no2)CC1)N1CC2(CC(n3cnc(C4CC4)n3)C2)C1 [Example 227, [4-[(S)-(3-cyclopropyl-1,2,4-oxadiazol-5-yl)-(4-fluorophenyl)methyl]-1-piperidyl]-[6-(3-cyclopropyl-1,2,4-triazol-1-yl)-2-azaspiro[3.3]heptan-2-yl]methanone]	3.8
O=C(c1cnc(OCC2(C(F)(F)F)CC2)nc1)N1CC2(CC(n3cnc(C4CC4)n3)C2)C1 [Example 31, [6-(3-cyclopropyl-1,2,4-triazol-1-yl)-2-azaspiro[3.3]heptan-2-yl]-[2-[[1-(trifluoromethyl)cyclo-propyl]methoxy]pyrimidin-5-yl] methanone]	353
Cc1cc(C(=O)N2CC3(CC(n4cnc(C5CC5)n4)C3)C2)cnc1OCC1(C)CC1 [Example 143, [6-(3-cyclopropyl-1,2,4-triazol-1-yl)-2-azaspiro[3.3]heptan-2-yl]-[5-methyl-6-[(1-methylcyclopropyl)methoxy]-3-pyridyl]methanone]	53.2
O=C(N1CCC(CNS(=O)(=O)c2ccccc2)CC1)N1CC2(CC(n3cnc(C4CC4)n3)C2)C1 [Example 325, N-[[1-[6-(3-cyclopropyl-1,2,4-triazol-1-yl)-2-azaspiro[3.3]heptane-2-carbonyl]-4-piperidyl]methyl]benzene-sulfonamide]	482
COc1cccc(S(=O)(=O)N2CC3(CN(C(=O)N4CC5(CC(n6cnc(C7CC7)n6)C5)C4)C3)C2)c1 [Example 245, [6-(3-cyclopropyl-1,2,4-triazol-1-yl)-2-azaspiro[3.3]heptan-2-yl]-[2-(3-methoxyphenyl)sulfonyl-2,6-diazaspiro[3.3]heptan-6-yl]methanone]	9.9
O=C(N1CC2(CC(Cc3ccc(OC(F)(F)F)nc3)C2)C1)N1CC2(CC(n3cnc(C4(O)CC4)n3)C2)C1 [Example 381]	0.44
O=C(N1CC(c2cn(C3(C(F)(F)F)CC3)nn2)C1)N1CC2(CC(n3cnc(C4CC4)n3)C2)C1 [Example 164, [6-(3-cyclopropyl-1,2,4-triazol-1-yl)-2-azaspiro[3.3]heptan-2-yl]-[3-[1-[1-(trifluoromethyl)cyclo-propyl]triazol-4-yl]azetidin-1-yl]methanone]	64.6
CS(=O)(=O)c1cccc(CC2CC3(C2)CN(C(=O)N2CC4(CC(n5cnc(C6CC6)n5)C4)C2)C3)c1 [Example 192, [6-(3-cyclopropyl-1,2,4-triazol-1-yl)-2-azaspiro[3.3]heptan-2-yl]-[6-(3-mesylbenzyl)-2-azaspiro[3.3]heptan-2-yl]methanone]	0.2
Cc1ccn(C2CC3(C2)CN(C(=O)c2ccc(-c4noc(C(C)(C)C)n4)cc2)C3)n1 [Example 148, [4-(5-tert-butyl-1,2,4-oxadiazol-3-yl)phenyl]-[6-(3-methylpyrazol-1-yl)-2-azaspiro[3.3]heptan-2-yl]methanone]	1410
O=C(N1CC2(CC(Oc3ccnc(C(F)(F)F)n3)C2)C1)N1CC2(CC(n3cnc(C4CC4)n3)C2)C1 [Example 55, [6-(3-cyclopropyl-1,2,4-triazol-1-yl)-2-azaspiro[3.3]heptan-2-yl]−[6-[2-(trifluoromethyl)pyrimidin-4-yl]oxy-2-azaspiro[3.3]heptan-2-yl]methanone]	1.8
